Source: ChEMBL document CHEMBL1156268, “Michael acceptor based antiplasmodial and antitrypanosomal cysteine protease inhibitors with unusual amino acids” (J Med Chem, 2010)
Activity calls are given as the source filed them. The calls are words filed in the database; no cut-off is given here. Residues, ends and D or L forms follow the SMILES beside them. *: point of attachment. X1 = O=C(/C=C/CO)*

Key:
[1] = test system: Plasmodium falciparum; test: Inhibition of Plasmodium falciparum recombinant falcipain-3 at 100 uM by standard fluorescence assay
[2] = test system: Plasmodium falciparum; test: Inhibition of Plasmodium falciparum recombinant falcipain-2 at 100 uM by standard fluorescence assay
[3] = test system: Plasmodium falciparum; test: Antiplasmodial activity against Plasmodium falciparum W2 at 100 uM by flow cytometry; assay type: functional
[4] = biological target: Rhodesain (Trypanosoma brucei rhodesiense) (UniProt Q95PM0); test: Inhibition of Trypanosoma brucei rhodesiense recombinant rhodesain at 100 uM by standard fluorescence assay
Rhodesain (Trypanosoma brucei rhodesiense), sequence (Q95PM0 1-450): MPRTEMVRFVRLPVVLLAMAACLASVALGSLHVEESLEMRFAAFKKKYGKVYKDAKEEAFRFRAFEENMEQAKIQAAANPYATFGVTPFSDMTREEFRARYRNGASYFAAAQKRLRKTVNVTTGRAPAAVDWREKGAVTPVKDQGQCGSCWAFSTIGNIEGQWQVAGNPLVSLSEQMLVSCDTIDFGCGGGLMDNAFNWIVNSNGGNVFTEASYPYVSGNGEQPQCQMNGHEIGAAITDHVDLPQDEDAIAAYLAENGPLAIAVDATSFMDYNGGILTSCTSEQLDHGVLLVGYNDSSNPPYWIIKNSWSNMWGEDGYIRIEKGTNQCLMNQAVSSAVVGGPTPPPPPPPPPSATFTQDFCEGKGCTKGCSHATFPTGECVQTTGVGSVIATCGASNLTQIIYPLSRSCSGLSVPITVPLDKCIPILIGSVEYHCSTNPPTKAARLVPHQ

[5] = test system: Trypanosoma brucei brucei; test: Antitrypanosomal activity against Trypanosoma brucei brucei at 100 uM; assay type: functional, organism-based
[6] = test system: Plasmodium falciparum; test: Antiplasmodial activity against Plasmodium falciparum W2 by flow cytometry; assay type: functional, organism-based
[7] = Inhibition of Plasmodium falciparum recombinant falcipain-2 using Cbz-Leu-Arg-AMC as substrate by standard fluorescence assay
[8] = biological target: Rhodesain (Trypanosoma brucei rhodesiense, UniProt Q95PM0); test: (§1) Inhibition of Trypanosoma brucei rhodesiense recombinant rhodesain by standard fluorescence assay
Rhodesain, sequence (Q95PM0 whole entry): as the sequence (Q95PM0 1-450) above

[9] = Selectivity index, ratio of IC50 for mouse J774.1 cells to IC50 for Trypanosoma brucei brucei; assay type: toxicity; conditions: J774.1 cells versus Trypanosoma brucei brucei, read-out: Ratio IC50
[10] = Cytotoxicity against mouse J774.1 cells; assay type: cell-based
[11] = test system: Trypanosoma brucei brucei; test: Antitrypanosomal activity against Trypanosoma brucei brucei; assay type: functional, organism-based
[12] = Inhibition of Plasmodium falciparum recombinant falcipain-3 by standard fluorescence assay
[13] = test system: Plasmodium falciparum; test: Antiplasmodial activity against Plasmodium falciparum FCBR by flow cytometry; assay type: functional, organism-based; conditions: FCBR/Columbia
[14] = biological target: Rhodesain (Trypanosoma brucei rhodesiense) (UniProt Q95PM0); test: as §1; conditions: TDE = time-dependent effect

Structure (SMILES) | inhibition [1] | inhibition [2] | inhibition [4] | IC50 [6] | Ki [7] | IC50 [11] | inhibition [3] | inhibition [5] | further results
O=C(/C=C\C(=O)N[C@@H](Cc1ccccc1)C(=O)OCc1ccccc1)N[C@@H](Cc1ccccc1)C(=O)O | inactive |  |  | 100 µM | 10.2 µM | 2.9 µM |  |  | Ki [8]: 0.15 µM; selectivity ratio [9]: 10; IC50 [10]: 31 µM
CCOC(=O)/C=C\C(=O)N[C@@H](Cc1ccccc1)C(=O)N[C@@H](C)C(=O)OCc1ccccc1 | inactive |  | 43% |  | 25.1 µM | 2.7 µM | inactive |  | IC50 [10]: 3 µM
C[C@H](NC(=O)[C@H](Cc1ccccc1)NC(=O)/C=C\C(=O)O)C(=O)OCc1ccccc1 | inactive |  |  | 50.3 µM | 25 µM |  |  |  | 
C/C=C/C(=O)N[C@@H](Cc1ccccc1)C(=O)OCc1ccccc1 | inactive |  | inactive |  | 20.3 µM | 2.8 µM | inactive |  | IC50 [10]: 45.2 µM
CCOC(=O)/C=C/C(=O)N[C@@H](Cc1ccccc1)C(=O)OCc1ccccc1 |  |  |  |  | 4.7 µM | 0.25 µM | inactive |  | Ki [8]: 7.6 µM; selectivity ratio [9]: 10; IC50 [10]: 3.5 µM; Ki [12]: 65.9 µM
CCOC(=O)/C=C/C(=O)O.CCOC(=O)/C=C/C(=O)OC[C@H](CC(N)=O)NC(=O)[C@@H](NC(=O)OC(C)(C)C)c1ccccc1 |  | 45% | 51% |  |  | 33.2 µM |  |  | IC50 [13]: 21.7 µM
CCOC(=O)/C=C\C(=O)N[C@@H](Cc1ccccc1)C(=O)N[C@@H](C)C(=O)N[C@@H](CC(C)C)C(=O)OCc1ccccc1 |  |  | 29% | 28.4 µM | 6.6 µM | 14.9 µM |  |  | IC50 [10]: 29 µM; Ki [12]: 36.8 µM
C[C@H](NC(=O)[C@H](Cc1ccccc1)NC(=O)/C=C\C(=O)N[C@@H](Cc1ccccc1)C(=O)OCc1ccccc1)C(=O)O |  |  |  | 8 µM | 3.8 µM | 2.2 µM |  |  | Ki [8]: 1.4 µM; selectivity ratio [9]: 10; IC50 [10]: 32 µM; Ki [12]: 42.2 µM
O=C(/C=C/C(=O)N[C@@H](Cc1ccccc1)C(=O)OCc1ccccc1)N[C@@H](Cc1ccccc1)C(=O)OCc1ccccc1 |  |  |  |  | 0.98 µM |  | inactive | inactive | Ki [8]: 0.34 µM; Time-dependent inhibition (qualitative) [14]: tde; Ki [12]: 2.8 µM
CCOC(=O)/C=C\CNC(=O)[C@@H](Cc1ccccc1)NC(=O)OC(C)(C)C |  | inactive | 47% | 43.1 µM |  | 29 µM |  |  | 
O=C(O)/C=C\C(=O)N[C@@H](Cc1ccccc1)C(=O)OCc1ccccc1 |  |  | inactive | 100 µM | 7.6 µM |  |  | inactive | Ki [12]: 43 µM
CCOC(=O)/C=C/CCOC(=O)[C@H](Cc1ccccc1)NC(=O)OCc1ccccc1 | inactive |  | 36% |  | 29.1 µM | 19 µM | inactive |  | IC50 [10]: > 100 µM
CC(C)C[C@H](NC(=O)[C@H](C)NC(=O)[C@H](Cc1ccccc1)NC(=O)/C=C\C(=O)O)C(=O)OCc1ccccc1 | inactive |  |  | 14.6 µM | 10.5 µM |  |  |  | 
CC(C)C[C@H](NC(=O)[C@H](CCC(N)=O)NC(=O)/C=C/CO)C(=O)N[C@H](C(=O)N[C@H](C(N)=O)C(C)C)C(C)C (X1-QLVV-NH2) |  | 27% | inactive |  |  |  |  |  | 
CCOC(=O)/C=C/C(=O)N[C@@H](CC(N)=O)C(=O)OC(C)(C)C | inactive | inactive | inactive |  |  |  | inactive | inactive | 
CCOC(=O)/C=C/COC(=O)[C@H](CC(N)=O)NC(=O)OC(C)(C)C |  |  | inactive | 34.8 µM | 17 µM |  |  | inactive | Ki [12]: 58 µM
CCOC(=O)/C=C/COC(=O)[C@H](CCC(N)=O)NC(=O)OC(C)(C)C | inactive |  | inactive |  | 37.7 µM |  | inactive | inactive | 
CCOC(=O)/C=C/C(=O)N[C@@H](CCC(=O)NC(c1ccccc1)(c1ccccc1)c1ccccc1)C(=O)OC |  |  |  | 4.7 µM | 3.3 µM | 31 µM |  |  | Ki [8]: 1.4 µM; Ki [12]: 14.7 µM
CCOC(=O)/C=C/C(=O)O.CCOC(=O)/C=C/C(=O)OC[C@H](CCC(N)=O)NC(=O)OC(C)(C)C | inactive | inactive | inactive |  |  |  | inactive | inactive | 
CCOC(=O)/C=C/CN[C@@H](Cc1ccccc1)C(=O)OCc1ccccc1 | inactive |  | inactive |  | 152 µM | 25 µM | inactive |  | IC50 [10]: 36.1 µM
CCOC(=O)/C=C/COC(=O)[C@H](CCC(N)=O)NC(=O)[C@H](CC(C)C)NC(=O)OC(C)(C)C | inactive | inactive | inactive |  |  |  | inactive | inactive | 
CCOC(=O)/C=C/N[C@@H](CC(N)=O)C(=O)OC(C)(C)C | inactive | inactive | inactive |  |  |  | inactive | inactive | 
CCOC(=O)/C=C\C(=O)OC[C@H](Cc1ccccc1)NC(=O)OC(C)(C)C | inactive |  |  | 100 µM | 54.3 µM | 17 µM |  |  | 

Now from value to compound, other results behind:

inhibition [1] | inhibition [2] | inhibition [4] | IC50 [6] | Ki [7] | IC50 [11] | Structure (SMILES) | inhibition [3] | inhibition [5] | further results
inactive | inactive | inactive |  |  |  | CCOC(=O)/C=C/OC[C@H](CCC(N)=O)NC(=O)OC(C)(C)C | inactive | inactive | 
inactive | inactive | inactive | 75.3 µM |  |  | CCOC(=O)/C=C/C(=O)N[C@@H](CCC(N)=O)C(=O)OC(C)(C)C |  | inactive | 
inactive | inactive | inactive |  |  |  | CCOC(=O)/C=C/C(=O)O.CCOC(=O)/C=C/C(=O)OC[C@H](CC(N)=O)NC(=O)OC(C)(C)C | inactive | inactive | 
inactive | inactive | inactive | 13.2 µM |  |  | CCOC(=O)/C=C/COC(=O)[C@H](CC(N)=O)NC(=O)[C@@H](NC(=O)OC(C)(C)C)C1CCCCC1 |  | inactive | 
 | inactive | 25% |  |  | 31.3 µM | CCOC(=O)/C=C/C(=O)O.CCOC(=O)/C=C/C(=O)OC[C@H](CCC(N)=O)NC(=O)[C@@H](NC(=O)OC(C)(C)C)c1ccccc1 |  |  | 
inactive |  | inactive |  | 25 µM | 32 µM | CCOC(=O)/C=C/COC(=O)[C@H](CCC(N)=O)NC(=O)[C@@H](NC(=O)OC(C)(C)C)C1CCCCC1 | inactive |  | 
inactive |  | 20% | 7.3 µM | 12 µM | 25.1 µM | CCOC(=O)/C=C/C(=O)N[C@@H](CC(=O)NC(c1ccccc1)(c1ccccc1)c1ccccc1)C(=O)OC |  |  | 
inactive |  | inactive |  | 25.1 µM |  | CCOC(=O)/C=C/COC(=O)[C@H](CC(N)=O)NC(=O)[C@H](CC(C)C)NC(=O)OC(C)(C)C | inactive | inactive | 
 |  | inactive | 20.8 µM | 3.1 µM |  | CCOC(=O)/C=C/COC(=O)[C@H](CCC(N)=O)NC(=O)[C@H](CC(C)C)NC(=O)[C@H](C)NC(=O)OC(C)(C)C |  | inactive | Ki [12]: 23.9 µM
inactive | inactive | inactive |  |  |  | CCOC(=O)/C=C/N[C@@H](CCC(N)=O)C(=O)OC(C)(C)C | inactive | inactive | 
inactive | inactive | inactive |  |  |  | CCOC(=O)/C=C/CN[C@@H](CC(N)=O)C(=O)OC(C)(C)C | inactive | inactive | 
inactive |  | 15% |  | 26.1 µM | 8 µM | CCOC(=O)/C=C\C(=O)N[C@@H](Cc1ccccc1)C(=O)OCc1ccccc1 |  |  | inhibition at 100 µM [3]: 28%; IC50 [10]: 3.3 µM
 | inactive | 11% |  |  |  | O=C(O)/C=C/C(=O)N[C@@H](Cc1ccccc1)C(=O)OCc1ccccc1 | inactive | inactive | 
 |  |  |  | 0.025 µM |  | CC(C)C[C@H](NC(=O)[C@H]1O[C@@H]1C(=O)O)C(=O)NCCCCN=C(N)N [E-64] |  |  | IC50 [13]: 3.2 µM; Ki [12]: 0.22 µM
inactive | inactive | inactive |  |  |  | CCOC(=O)/C=C/CN[C@@H](CCC(N)=O)C(=O)OC(C)(C)C | inactive | inactive | 
 |  | inactive | 100 µM | 16.7 µM |  | CCOC(=O)/C=C\[C@H](Cc1ccccc1)NC(=O)OC(C)(C)C |  | inactive | Ki [12]: 198 µM
